Laboratory results: patent US20220125877A1, “METHOD FOR TREATING COLORECTAL CANCER” (SUN YAT-SEN UNIVERSITY, priority 2019, published 2022)

Columns and labels:
Assay type in all cases: cell-based, human
[1] = test system: KRAS mutation CRC cells HCT-116; test: Cell viability (CCK-8 method)
Description: (§1) The cells were inoculated on a plate according to the concentration of 5000 cells/well (48-well plate, 200 μl per well). The cells were treated with different ways according to the experimental requirements, and 10 μl CCK8 solution was added after a period of time. The cells were incubated for 1 h in an incubator; 200 μl supernatant were absorbed into a 96-well ELISA plate to determine OD450 with a microplate reader.
(§2) (2) Metformin with a gradient concentration was used in vitro to treat KRAS wildtype colorectal cancer cell lines SW48 and CaCO2, KRAS G13D-mutation colorectal cancer cell lines HCT-116 and LoVo, as well as KRAS G12V-mutation colorectal cancer cell lines SW480 and SW620. In addition, the metformin with a gradient concentration was used to treat the KRAS wildtype colorectal cancer cell line SW48 transfected with KRAS G12V, KRAS G13D and KRAS G12D plasmids.
(§3) 5 μM and 10 μM lansoprazole were used to treat HCT-116 and LoVo simultaneously; metformin was used to treat the cells at the same time for 48 h; the cell viability was detected by CCK8.

[2] = test system: KRAS mutation CRC cells LoVo; test: Cell viability (CCK-8 method)
Description: as §1, §2, §3

[3] = test system: KRAS G13D, G12D and G12V mutation colorectal cancer cells; test: Cell viability, metformin with a gradient concentration; conditions: FIG. 6
[4] = test system: KRAS wildtype colorectal cancer cells; test: as above; conditions: FIG. 6
Description: as §1, §2

[5] = test system: LoVo cell line with knock-down KRAS protein; test: Cell cycle in KRAS knock-down cells; conditions: relative to LoVo, FIG. 8D
Description: 1) KRAS interference lentivirus (sh-KRAS) was constructed and packaged by Shanghai Genechem Co., LTD.
2) LoVo cells were subcultured to a 6-well plate (about 1×10^5/well), when cells were subjected to adherence growth, and the degree of cell fusion was not greater than 50%, fresh culture solution was replaced ahead of 2 h, and 10 μg/mL lentivirus infection enhancer polybrene was added. Multiplicity of Infection (MOI) of LoVo was about 20; lentivirus was added according to the formula: adding amount of lentivirus per well (μl)=MOI×cell population/titer (TU/ml)×1000. The culture solution was replaced after 16-18 h, and 1 μM puromycin was conventionally added for screening the cell line whose RNA stable expression was interfered by KRAS.
1) The cells were inoculated onto a 6-well plate, and subjected to adherence growth for 12 h, then starvation treatment over the night, and treated with the addition of an agent for 24 h, then the cells were digested and washed for 3 times with PBS and centrifuged to discard supernatant; −20° C. pre-cooled 70% ethanol was added dropwise, and the cells were mixed well by vortex, and immobilized over the night at −20° C.
2) The cells were horizontally centrifuged for 10 min at 2000 rpm to discard the supernatant; then the cells were washed with PBS for 2-3 times to remove the residual ethanol with centrifugation for 5 min each time. […]

[6] = test system: SW48 KRAS (G13D) cell line; test: Proliferation / cell cycle in CRISPR/Cas9 KRAS (G13D) cells; conditions: relative to SW48, FIG. 8E
[7] = test system: KRAS (G13D) mutation cells constructed via the CRISPR/Cas9 system; test: Concentration of metformin in cells by mass spectrometry; conditions: compared with the control cell, FIG. 11C
Description: (§4) The increase of concentration of metformin in KRAS mutation cells was verified by using the KRAS (G13D) mutation cells constructed via the CRISPR/Cas9 system and the LoVo cell line with stable knock-down KRAS.
(§5) Metformin was used to detect the KRAS (G13D) mutation cells constructed via the CRISPR/Cas9 system and the LoVo cell line with stable knock-down KRAS to collect cell lysis solution at different time points, and the concentration of metformin in the cells was detected by mass spectrometry.

[8] = test system: LoVo cell line with stable knock-down KRAS; test: as above; conditions: relative to LoVo, FIG. 11D
Description: as §4, §5

[9] = test system: colorectal cancer cells (LoVo, SW48) with altered MATE1; test: Proliferation with MATE1 over-expressed on LoVo or interfered on SW48; conditions: FIGS. 12E-F
[10] = with 5 μM and 10 μM lansoprazole, 48 h, FIGS. 11A-B

CN(C)C(=N)N=C(N)N [metformin]
IC50 ([1]; Homo sapiens, HCT-116, CCK8, FIG. 10): 23.7 mM | increase of IC50 of metformin after lansoprazole [1, 10]: 1.2-2.5 times | IC50 ([2]; Homo sapiens, LoVo, CCK8, FIG. 10): 8.18 mM | increase of IC50 of metformin after lansoprazole [2, 10]: 1.2-2.5 times | effect on cell viability [3]: has an inhibiting effect | effect on cell viability [4]: has no effect | inhibiting effect on transformation from G1 phase to phase S after interference of KRAS (G13D) expression [5]: down-regulate the inhibiting effect | inhibiting effect on proliferation of tumor cells with cell cycle after KRAS (G13D) mutation [6]: enhances the inhibiting effect | concentration of metformin in cells [7]: obviously increased concentration | concentration of metformin in cells [8]: decreases obviously | inhibiting effect on proliferation with down-regulated expression of MATE1 [9]: accelerating the inhibiting effect
